In experiment [1] the test system is p-IKKa levels in L363 (NIK translocated multiple myeloma) cells. Briefly: Effect of compounds on p-IKKa levels in L363 (NIK translocated multiple myeloma) cells (AlphaLISA SureFire Ultra p-IKKa Ser176/180). The experiment is classed as cell-based, human. The protocol:
Assay 2: Effect of Compounds on p-IKKa Levels in L363 (NIK Translocated Multiple Myeloma) Cells
All compounds tested were dissolved and serially diluted in DMSO, 1:3 dilution for 11 points in an Echo compatible plate. 100% DMSO was added to columns 12 and 24 of the plate to serve as high and low signal controls. This compound plate was used to spot 20 nL of compound or DMSO into a Greiner 384 well TC plate (781080). The final DMSO concentration was 0.3% (v/v) in cell assays. Human L363 cells (ATCC) were cultured in RPM11640 medium supplemented with GlutaMax, non-essential amino acids, sodium pyruvate and 10% fetal bovine serum. Cells were routinely maintained at densities of 0.2×10^6 cells per ml-2×10^6 cells per mL at 37° C. in a humidified 5% CO2 atmosphere incubator. Cells were passaged twice a week splitting back to obtain the low density. The day before the assay, cells were washed twice in HBSS (Hank's Balanced Salt Solution), resuspended in Dulbecco's Modified Eagle Medium (DMEM)+0.5% IgG and protease free BSA (Jackson Immuno Research Laboratories), +/−250 ng/ml recombinant human B-cell activating factor (BAFF/BLyS/TNFSF13B) and incubated overnight at 37° C. in a humidified 5% CO2 atmosphere (bulk stimulation with or without BAFF). The next day, the cell concentration was adjusted to 1×10^7 cells/ml in DMEM+/−250 ng/ml BAFF+/−10 μM MG132 and plated at 10 μl/well into compound or DMSO spotted 384 well TC plates. Seeded cells were incubated at 37° C. in a humidified 5% CO2 atmosphere for 6 h. After 6 h, the plates were removed from the incubator and cell lysis was achieved by the addition of 2.5 μl 5× lysis buffer containing protease and phosphatase inhibitors, followed by shaking on a plate shaker at room temperature for 15 min. At the end of this incubation, lysed cells were sequentially treated and incubated with acceptor and donor bead mixes according to the manufacturer's protocol for a 1 plate/2-incubation suspension cell assay (AlphaLISA SureFire Ultra p-IKKa (Ser 176/180) Assay Kit (Perkin Elmer). Plates were read using an EnVision Multilabel Plate Reader (Perkin Elmer). Within an experiment, a concentration response curve for each compound was run in duplicate. The signal obtained in the test wells was normalized using high signal (BAFF stimulated cells, DMSO, MG132) and low signal (unstimulated cells, DMSO) controls. To determine the IC50, a sigmoidal curve was fitted to the plot of % inhibition versus Log10 compound concentration.
(Bead proximity is the source of the signal in Alpha formats.)

For experiment [2], the target named is Recombinant Human NF-kappaB-Inducing Kinase (NIK/MAP3K14) (Homo sapiens, UniProt Q99558). Briefly: Inhibition of auto-phosphorylation of recombinant human NIK/MAP3K14 activity (AlphaScreen). It is filed as biochemical. To be noted: 5 μM ATP, 1 nM NIK, average if tested more than once. The protocol:
Assay 1: Inhibition of Auto-Phosphorylation of Recombinant Human NF-kappaB-Inducing Kinase (NIK/MAP3K14) Activity (AlphaScreen™)
NIK/MAP3K14 auto-phosphorylation activity was measured using the AlphaScreen™ (αscreen) format (Perkin Elmer). All compounds tested were dissolved in dimethyl sulfoxide (DMSO) and further dilutions were made in assay buffer. The final DMSO concentration was 0.7% (v/v) in assays. The assay buffer was 50 mM Tris pH 7.5 containing 1 mM EGTA (ethylene glycol tetraacetic acid), 1 mM DTT (dithiothreitol), 0.1 mM Na3VO4, 5 mM MgCl2, and 0.01% Tween®20. The assays were carried out in 384 well Proxiplates (Perkin Elmer). The incubations consisted of the compound, 5 μM Adenosine-5′-triphosphate (ATP), and 1 nM NIK/MAP3K14. Incubations were initiated by the addition of GST-tagged NIK/MAP3K14 enzyme, carried out for 2 h at 25° C. and terminated by addition of stop buffer containing anti-phospho-IKK Ser176/180 antibody. Protein A Acceptor and Glutathione-Donor beads were added before reading using an EnVision Multilabel Plate Reader (Perkin Elmer). The signal obtained in the wells was normalized using high (full enzyme activity, 0.7% DMSO) and low controls (no enzyme activity, 0.7% DMSO, no ATP). IC50's were determined by fitting a sigmoidal curve to % inhibition of control versus Log10 compound concentration.

Where [3] appears, read: Homo sapiens, L-363, p-IKKa levels in L363 cells, average if tested more than once, read-out: Assay 2 IC50.
The mark [4] stands for this setting: p-IKKa levels in L363 cells, average if tested more than once, read-out: Assay 2 IC50.

Structures are written as SMILES. Like-named read-outs stand apart in the source and are kept apart here.

Chain of Recombinant Human NF-kappaB-Inducing Kinase (NIK/MAP3K14) (Q99558 whole entry): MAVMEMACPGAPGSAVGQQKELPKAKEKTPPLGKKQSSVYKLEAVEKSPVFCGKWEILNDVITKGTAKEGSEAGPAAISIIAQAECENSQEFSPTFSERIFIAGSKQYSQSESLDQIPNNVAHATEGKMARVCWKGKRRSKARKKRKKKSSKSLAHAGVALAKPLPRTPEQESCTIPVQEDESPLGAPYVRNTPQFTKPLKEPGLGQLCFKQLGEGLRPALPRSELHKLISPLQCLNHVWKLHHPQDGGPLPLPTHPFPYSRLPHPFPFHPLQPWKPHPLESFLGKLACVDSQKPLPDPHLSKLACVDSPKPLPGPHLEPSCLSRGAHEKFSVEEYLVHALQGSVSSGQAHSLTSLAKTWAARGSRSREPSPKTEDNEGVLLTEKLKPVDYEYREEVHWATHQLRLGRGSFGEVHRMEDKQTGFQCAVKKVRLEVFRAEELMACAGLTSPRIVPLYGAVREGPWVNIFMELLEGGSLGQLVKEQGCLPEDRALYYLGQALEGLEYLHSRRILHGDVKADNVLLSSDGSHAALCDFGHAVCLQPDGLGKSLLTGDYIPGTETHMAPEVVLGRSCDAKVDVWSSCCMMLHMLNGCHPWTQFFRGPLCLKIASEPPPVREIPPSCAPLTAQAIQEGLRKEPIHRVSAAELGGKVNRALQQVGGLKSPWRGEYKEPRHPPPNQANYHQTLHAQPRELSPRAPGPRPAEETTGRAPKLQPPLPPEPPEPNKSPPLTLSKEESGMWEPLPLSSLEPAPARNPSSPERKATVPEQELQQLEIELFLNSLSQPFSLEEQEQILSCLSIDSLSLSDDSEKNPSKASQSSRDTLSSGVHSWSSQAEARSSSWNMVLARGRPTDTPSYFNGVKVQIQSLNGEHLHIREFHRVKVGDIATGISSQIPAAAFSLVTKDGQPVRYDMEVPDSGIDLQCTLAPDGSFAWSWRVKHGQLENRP

A word on the IC50: it is the point on the concentration scale where inhibition reaches its midpoint. For the molecule `CN1CC[C@@](O)(c2ccnc(-c3ccn(-c4ccnc(Nc5ccn(C)n5)n4)n3)c2)C1=O` (racemic) [Example 30, (R,S)-3-Hydroxy-1-methyl-3-(2-(1-(2-((1-methyl-1H-pyrazol-3-yl)amino)pyrimidin-4-yl)-1H-pyrazol-3-yl)pyridin-4-yl)pyrrolidin-2-one], the values for the IC50 in experiment [1] (setting [3]) and in experiment [2] were 100 to 500 nM and less than 100 nM, respectively.
The corresponding values for `CN1CCC(O)(c2ccnc(-c3cccc(-c4ccnc(Nc5ccn(C)n5)n4)n3)c2)C1=O` (racemic) [Example 31, (R,S)-3-Hydroxy-1-methyl-3-(6′-(2-((1-methyl-1H-pyrazol-3-yl)amino)pyrimidin-4-yl)-[2,2′-bipyridin]-4-yl)pyrrolidin-2-one] are greater than 501 nM and greater than 501 nM.
The matching figures for `Cc1cn(-c2ccnc(Nc3ccn(C)n3)n2)nc1-c1cc(C2(O)CCN(C)C2=O)ccn1` (racemic) [Example 32, (R, S)-3-Hydroxy-1-methyl-3-(2-(4-methyl-1-(2-((1-methyl-1H-pyrazol-3-yl)amino)pyrimidin-4-yl)-1H-pyrazol-3-yl)pyridin-4-yl)pyrrolidin-2-one]: greater than 501 nM and less than 100 nM.
For the molecule `CN1C(=O)[C@@](O)(c2cccc(-c3nc(-c4ccnc(Nc5ccn(C)n5)n4)cs3)c2)C[C@H]1C(F)(F)F` (relative stereo) [Example 38, (trans)-3-hydroxy-1-methyl-3-(3-(4-(2-((1-methyl-1H-pyrazol-3-yl)amino)pyrimidin-4-yl)thiazol-2-yl)phenyl)-5-(trifluoromethyl)pyrrolidin-2-one], the results for the IC50 in experiment [1] (setting [4]) and in experiment [2] were 100 to 500 nM and less than 100 nM, respectively.
Regarding `CN1CC[C@@](O)(c2cccc(-c3nc(-c4ccnc(Nc5cnn(C6CCOC6)c5)n4)cs3)c2)C1=O` (single isomer, unassigned) [Example 18], the IC50 in experiment [1] (setting [3]) is 100 to 500 nM; in experiment [2], less than 100 nM.
Turning to `CN1CC[C@@](O)(c2cccc(-c3nc(-c4ccnc(Nc5cnn(C6CCOC6)c5)n4)cs3)c2)C1=O` (single isomer, unassigned) [Example 19], the IC50 in experiment [1] (setting [4]) and in experiment [2] was less than 100 nM each time.
As to `CN1CC[C@@](O)(c2cc(-c3csc(-c4ccnc(Nc5ccn(C)n5)n4)n3)ccc2F)C1=O` (single isomer, unassigned) [Example 24], the IC50 in experiment [1] (setting [3]) and in experiment [2] was greater than 501 nM in each case.
For `CN1CC[C@](O)(c2cc(-c3csc(-c4ccnc(Nc5ccn(C)n5)n4)n3)ccc2F)C1=O` (single isomer, unassigned) [Example 25], the IC50 in experiment [1] (setting [3]) is greater than 501 nM; in experiment [2], 100 to 500 nM.
Consider `CN1CCC(O)(c2cc(F)cc(-c3csc(-c4ccnc(Nc5ccn(C)n5)n4)n3)c2)C1=O` (single isomer, unassigned) [Example 26, 3-(3-fluoro-5-(2-(2-((1-methyl-1H-pyrazol-3-yl)amino)pyrimidin-4-yl)thiazol-4-yl)phenyl)-3-hydroxy-1-methylpyrrolidin-2-one], for which the IC50 in experiment [1] (setting [4]) and in experiment [2] was greater than 501 nM in each case.
With `CN1CCC(O)(c2cc(F)cc(-c3csc(-c4ccnc(Nc5ccn(C)n5)n4)n3)c2)C1=O` (single isomer, unassigned) [Example 27, 3-(3-fluoro-5-(2-(2-((1-methyl-1H-pyrazol-3-yl)amino)pyrimidin-4-yl)thiazol-4-yl)phenyl)-3-hydroxy-1-methylpyrrolidin-2-one], the IC50 is 100 to 500 nM in experiment [1] (setting [4]) and less than 100 nM in experiment [2].
On to `CN1CCC(O)(c2ccc(F)c(-c3csc(-c4ccnc(Nc5ccn(C)n5)n4)n3)c2)C1=O` (single isomer, unassigned) [Example 28, 3-(4-fluoro-3-(2-(2-((1-methyl-1H-pyrazol-3-yl)amino)pyrimidin-4-yl)thiazol-4-yl)phenyl)-3-hydroxy-1-methylpyrrolidin-2-one], for which the IC50 in experiment [1] (setting [4]) and in experiment [2] was less than 100 nM each time.
As for `CN1CCC(O)(c2ccc(F)c(-c3csc(-c4ccnc(Nc5ccn(C)n5)n4)n3)c2)C1=O` (single isomer, unassigned) [Example 29, 3-(4-fluoro-3-(2-(2-((1-methyl-1H-pyrazol-3-yl)amino)pyrimidin-4-yl)thiazol-4-yl)phenyl)-3-hydroxy-1-methylpyrrolidin-2-one], the results for the IC50 in experiment [1] (setting [4]) and in experiment [2] were greater than 501 nM and 100 to 500 nM, respectively.
For the molecule `CN1CCC(O)(c2ccnc(-c3nc(-c4ccnc(Nc5ccn(C)n5)n4)cs3)c2)C1=O` (single isomer, unassigned) [Example 33, 3-hydroxy-1-methyl-3-(2-(4-(2-((1-methyl-1H-pyrazol-3-yl)amino)pyrimidin-4-yl)thiazol-2-yl)pyridin-4-yl)pyrrolidin-2-one], the IC50 in experiment [1] (setting [4]) and in experiment [2] was greater than 501 nM each time.
With `CN1CCC(O)(c2ccnc(-c3nc(-c4ccnc(Nc5ccn(C)n5)n4)cs3)c2)C1=O` (single isomer, unassigned) [Example 34, 3-hydroxy-1-methyl-3-(2-(4-(2-((1-methyl-1H-pyrazol-3-yl)amino)pyrimidin-4-yl)thiazol-2-yl)pyridin-4-yl)pyrrolidin-2-one], the IC50 in experiment [1] (setting [4]) is 100 to 500 nM; in experiment [2], less than 100 nM.
The matching figures for `CN1CC(F)(F)C(O)(c2cccc(-c3nc(-c4ccnc(Nc5ccn(C)n5)n4)cs3)c2)C1=O` (single isomer, unassigned) [Example 35, 4,4-difluoro-3-hydroxy-1-methyl-3-(3-(4-(2-((1-methyl-1H-pyrazol-3-yl)amino)pyrimidin-4-yl)thiazol-2-yl)phenyl)pyrrolidin-2-one]: greater than 501 nM and greater than 501 nM.
The corresponding values for `CN1CC(F)(F)C(O)(c2cccc(-c3nc(-c4ccnc(Nc5ccn(C)n5)n4)cs3)c2)C1=O` (single isomer, unassigned) [Example 36, 4,4-difluoro-3-hydroxy-1-methyl-3-(3-(4-(2-((1-methyl-1H-pyrazol-3-yl)amino)pyrimidin-4-yl)thiazol-2-yl)phenyl)pyrrolidin-2-one] are 100 to 500 nM and less than 100 nM.
As to `CC(Nc1nccc(-c2nc(-c3cccc(C4(O)CCN(C)C4=O)c3)cs2)n1)c1cnn(C)c1` (single isomer, unassigned) [Example 39], the IC50 in experiment [1] (setting [4]) and in experiment [2] was less than 100 nM throughout.
Regarding `CC(Nc1nccc(-c2nc(-c3cccc(C4(O)CCN(C)C4=O)c3)cs2)n1)c1cnn(C)c1` (single isomer, unassigned) [Example 40], the IC50 in experiment [1] (setting [4]) is greater than 501 nM; in experiment [2], less than 100 nM.
As to `CC(Nc1nccc(-c2nc(-c3cccc(C4(O)CCN(C)C4=O)c3)cs2)n1)c1cc[nH]n1` (single isomer, unassigned) [Example 41], the IC50 is 100 to 500 nM in experiment [1] (setting [4]) and less than 100 nM in experiment [2].
Regarding `Cc1cncnc1Nc1nccc(-c2csc(-c3cccc([C@]4(O)CCN(C)C4=O)c3)n2)n1` [Example 105, (R)-3-hydroxy-1-methyl-3-(3-(4-(2-((5-methylpyrimidin-4-yl)amino)pyrimidin-4-yl)thiazol-2-yl)phenyl)pyrrolidin-2-one], the IC50 in experiment [1] (Homo sapiens, L-363, read-out: Assay 2 IC50) is greater than 501 nM.
For `Cc1cc(CNc2nccc(-c3csc(-c4cccc([C@]5(O)CCN(C)C5=O)c4)n3)n2)n[nH]1` [Example 195], in experiment [1] (setting [3]), the IC50 was greater than 501 nM.

The values are drawn from patent publication US20250304567A1, “PYRROLIDIONE DERIVATIVES AS INHIBITORS OF NF KAPPA B INDUCING KINASE” (priority 2022, published 2025).
